Patent publication US9862679B2, “Potent and selective inhibitors of monoamine transporters; method of making; and use thereof” (priority 2013, dated 2018)
Several values for one entry are separate records, joined by “and”; a condition that tells them apart may be missing. Equal values may be shown once. Read-outs that look alike come from different tables or passages of the source.

Assays:
[1] = biological target: T1, serotonin transporter (SERT) (Rattus norvegicus (Rat), UniProt P31652); assay: biochemical
T1 sequence (P31652 whole entry): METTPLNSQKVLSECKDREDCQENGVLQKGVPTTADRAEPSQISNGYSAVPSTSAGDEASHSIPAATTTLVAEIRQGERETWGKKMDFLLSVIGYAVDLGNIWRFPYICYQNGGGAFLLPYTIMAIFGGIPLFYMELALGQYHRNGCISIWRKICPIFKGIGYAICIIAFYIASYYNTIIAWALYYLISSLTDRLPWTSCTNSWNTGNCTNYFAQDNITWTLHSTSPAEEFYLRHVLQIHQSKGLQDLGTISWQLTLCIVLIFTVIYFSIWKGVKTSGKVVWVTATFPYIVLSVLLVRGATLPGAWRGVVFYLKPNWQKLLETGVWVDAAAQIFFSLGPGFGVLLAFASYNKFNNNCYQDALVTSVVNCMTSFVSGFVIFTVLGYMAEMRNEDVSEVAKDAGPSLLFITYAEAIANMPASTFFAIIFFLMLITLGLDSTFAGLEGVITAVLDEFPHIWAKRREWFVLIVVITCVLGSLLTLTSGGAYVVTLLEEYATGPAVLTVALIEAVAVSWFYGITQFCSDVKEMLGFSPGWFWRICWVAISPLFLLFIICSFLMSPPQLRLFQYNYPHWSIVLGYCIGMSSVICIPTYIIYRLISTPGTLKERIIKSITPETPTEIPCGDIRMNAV
Experimental: (§3) Brains from male Sprague-Dawley rats weighing 200-225 g (Taconic Labs, Germantown, N.Y.) were removed, midbrain dissected and rapidly frozen. […] Nonspecific binding was determined using 10 mM fluoxetine. […] The filters were washed twice with 3 mL cold buffer and transferred to scintillation vials. Beckman Ready Value (3.0 mL) was added and the vials were counted the next day using a Beckman 6000 liquid scintillation counter (Beckman Coulter Instruments, Fullerton, Calif.). […] Data were analyzed with GraphPad Prism software (San Diego, Calif.).

[2] = biological target: dopamine transporter (DAT) (Rattus norvegicus (Rat), UniProt P23977); assay: Dopamine Transporter Binding Assay ([3H]WIN 35428, rat striatal membranes)
Sequence of dopamine transporter (DAT) (P23977 whole entry): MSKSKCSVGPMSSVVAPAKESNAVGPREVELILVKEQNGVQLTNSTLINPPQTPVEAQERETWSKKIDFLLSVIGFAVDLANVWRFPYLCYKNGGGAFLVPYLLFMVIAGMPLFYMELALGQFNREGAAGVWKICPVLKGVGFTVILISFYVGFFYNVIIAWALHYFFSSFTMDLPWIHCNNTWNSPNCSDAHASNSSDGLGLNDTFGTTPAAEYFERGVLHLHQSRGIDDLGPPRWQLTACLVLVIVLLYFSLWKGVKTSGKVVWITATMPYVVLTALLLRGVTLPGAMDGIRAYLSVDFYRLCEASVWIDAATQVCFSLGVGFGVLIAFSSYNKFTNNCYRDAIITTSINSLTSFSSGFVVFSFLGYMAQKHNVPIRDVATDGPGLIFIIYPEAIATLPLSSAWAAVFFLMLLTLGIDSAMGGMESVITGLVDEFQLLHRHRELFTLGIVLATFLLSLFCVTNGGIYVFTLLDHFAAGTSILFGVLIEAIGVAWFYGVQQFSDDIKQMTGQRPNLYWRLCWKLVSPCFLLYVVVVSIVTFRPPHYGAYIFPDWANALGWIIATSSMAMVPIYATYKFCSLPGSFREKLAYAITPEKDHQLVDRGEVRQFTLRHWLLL

[3] = biological target: norepinephrine transporter (NET) (Rattus norvegicus, UniProt Q63380); conditions: rat brain membranes
Sequence of norepinephrine transporter (NET) (Q63380 1-617): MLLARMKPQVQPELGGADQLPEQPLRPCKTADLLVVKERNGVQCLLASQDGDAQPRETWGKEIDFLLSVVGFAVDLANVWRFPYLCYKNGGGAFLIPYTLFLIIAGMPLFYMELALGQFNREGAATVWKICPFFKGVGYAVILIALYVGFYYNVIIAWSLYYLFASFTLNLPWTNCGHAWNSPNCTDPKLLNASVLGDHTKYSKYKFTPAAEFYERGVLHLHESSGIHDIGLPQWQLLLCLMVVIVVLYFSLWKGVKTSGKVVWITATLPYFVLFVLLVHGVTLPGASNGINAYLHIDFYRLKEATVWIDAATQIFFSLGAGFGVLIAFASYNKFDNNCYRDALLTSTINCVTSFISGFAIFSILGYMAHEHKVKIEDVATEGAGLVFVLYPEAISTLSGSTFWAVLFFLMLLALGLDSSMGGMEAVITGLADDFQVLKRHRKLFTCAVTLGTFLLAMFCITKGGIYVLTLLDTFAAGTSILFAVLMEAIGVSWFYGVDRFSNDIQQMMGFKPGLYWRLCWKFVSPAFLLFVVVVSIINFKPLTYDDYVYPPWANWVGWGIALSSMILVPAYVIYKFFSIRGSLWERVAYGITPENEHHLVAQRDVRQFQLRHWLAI
Experimental: Binding affinities of all compounds were evaluated at the DAT, SERT, and NET in rat brain membranes using previously described methods:
Norepinephrine Transporter Binding Assay. Brains from male Sprague-Dawley rats weighing 200-225 g (Taconic Labs, Germantown, N.Y.) were removed, frontal cortex dissected and rapidly frozen. Membranes were prepared by homogenizing tissues in 20 volumes (w/v) of 50 mM Tris containing 120 mM NaCl and 5 mM KCl, (pH 7.4 at 25° C.), using a Brinkman Polytron and centrifuged at 50,000×g for 10 min at 4° C. The resulting pellet was resuspended in buffer, recentrifuged and resuspended in buffer to a concentration of 80 mg/mL. Ligand binding experiments were conducted in assay tubes containing 0.5 mL buffer for 60 min at 0-4° C. […] Nonspecific binding was determined using 1 mM desipramine. Incubations were terminated by rapid filtration through Whatman GF/B filters, presoaked in 0.05% polyethylenimine, using a Brandel R48 filtering manifold (Brandel Instruments Gaithersburg, Md.). The filters were washed twice with 3 mL cold buffer and transferred to scintillation vials. Beckman Ready Value (3.0 mL) was added and the vials were counted using a Beckman 6000 liquid scintillation counter (Beckman Coulter Instruments, Fullerton, Calif.). […] All compounds were tested as racemic mixtures.

Sigma 2 = Sigma 2 (Homo sapiens (Human), UniProt Q5BJF2); assay: Sigma 2 binding affinity (Table 5)
Sequence of Sigma 2 (Q5BJF2 whole entry): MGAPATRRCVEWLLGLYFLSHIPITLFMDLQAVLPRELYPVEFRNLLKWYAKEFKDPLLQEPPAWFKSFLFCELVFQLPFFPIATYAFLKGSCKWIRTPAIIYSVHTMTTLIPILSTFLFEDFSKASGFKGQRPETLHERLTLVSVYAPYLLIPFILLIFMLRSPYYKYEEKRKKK

Sigma 1 = Sigma 1 (Homo sapiens (Human), UniProt Q99720); assay: Sigma 1 binding affinity (Table 5)
Sequence of Sigma 1 (Q99720 whole entry): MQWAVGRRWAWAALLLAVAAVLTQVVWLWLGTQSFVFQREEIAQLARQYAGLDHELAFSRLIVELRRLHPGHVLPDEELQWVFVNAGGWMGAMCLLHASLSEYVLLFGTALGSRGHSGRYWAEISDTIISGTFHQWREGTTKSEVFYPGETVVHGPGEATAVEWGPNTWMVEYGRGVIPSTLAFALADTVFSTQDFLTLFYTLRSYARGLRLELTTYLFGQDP

[4] = Metabolic stability in mouse plasma; format: in vitro ADME; conditions: mouse plasma, 10 μM, 0 min
Experimental: The metabolic stability was evaluated using mouse plasma and mouse liver microsomes.

[5] = biological target: T1, serotonin transporter (SERT); conditions: for Ki: rat brain membranes
Experimental: as §3

[6] = Phase I metabolic stability in mouse liver microsomes (NADPH); format: in vitro ADME; conditions: 10 μM
Experimental: (§1) Phase I and phase II metabolic stability assay for was conducted in mouse liver microsomes. For phase I metabolism, the reaction was carried out with 100 mM potassium phosphate buffer, pH 7.4, in the presence of NADPH regenerating system (1.3 mM NADPH, 3.3 mM glucose 6-phosphate, 3.3 mM MgCl2, 0.4 U/mL glucose-6-phosphate dehydrogenase, 50 μM sodium citrate). Reactions in duplicate were initiated by addition of the liver microsomes to the incubation mixture (compound final concentration was 10 μM; 0.5 mg/mL microsomes). For phase II glucuronidation reaction compound was added to TRIS-HCl buffer (50 mM, pH 7.5) with microsomes (0.5 mg/mL), along with MgCl2 (8 mM), and alamethicin (25 μg/mL) and pre-incubated at 37° C. The reaction was initiated (in duplicate) with UDPGA at a final concentration of 2 mM. Negative controls in the absence NADPH and UDPGA were carried for both phase I and phase II metabolism respectively, to determine the specific cofactor free degradation. […] At predetermined times (0, 15, 30 and 60 min) aliquots of the mixture were removed and the reaction quenched by addition of two times the volume of ice cold acetonitrile spiked with the internal standard. Compound disappearance was monitored over time using a liquid chromatography and tandem mass spectrometry (LC/MS/MS) method.
(§2) Compounds were separated on an Agilent 1290 UPLC system with a c18 column using a gradient run of 55:45-5:95 water:acetonitrile over 3.2 minutes and detected on an Agilent 6520 QTOF mass spectrometer.

[7] = Phase II (glucuronidation, UDPGA) metabolic stability in mouse liver microsomes; format: in vitro ADME
Experimental: as §1, §2

[8] = rat brain membranes, Table 1 thioacetamides and sulfinylacetamides, read-out: Ki (nM) ± S.E.M. DAT
[9] = read-out: Ki (nM) ± S.E.M. NET, Table 1 thioacetamides and sulfinylacetamides
[10] = Table 5 piperazinyl derivatives, read-out: Sigma 2 Ki ± SEM
[11] = Table 5 piperazinyl derivatives, read-out: Sigma 1 Ki ± SEM
[12] = read-out: NET Ki ± SEM, Table 5 piperazinyl derivatives
[13] = read-out: SERT Ki ± SEM, Table 5 piperazinyl derivatives

In the case of `Cc1ccc(C(c2ccc(C)cc2)[S+]([O-])CC(N)=O)cc1` (centres unmarked) [Compound 3a, 2-((Di-p-tolylmethyl)sulfinyl)acetamide], the Ki [1] is reported as > 100 µM, the Ki [2, 8] is reported as 12700 nM and the Ki [3, 9] is reported as > 100000 nM.

For `[O-][S+](CCN1CCN(CCCc2ccccc2)CC1)C(c1ccc(F)cc1)c1ccc(F)cc1` (centres unmarked) [Compound 8b, 1-(2-((Bis(4-fluorophenyl)methyl)sulfinyl)ethyl)-4-(3-phenylpropyl)piperazine], the Ki (Sigma 2; [10]) was 0.0259 ± 0.00111 µM, the Ki ([2]; read-out: DAT Ki ± SEM) was 2.92 ± 0.38 nM and the Ki (Sigma 1; [11]) was 0.0424 ± 0.0051 µM. The Ki [3, 12] was 4280 ± 343 nM.

For `CCN(CC)CCOC(=O)c1ccc(N)cc1` [Procaine, reference compound], the “Metabolic stability, Plasma (% remaining)” value [4] was 100%.

For `O=C(CSC(c1ccc(F)cc1)c1ccc(F)cc1)NCC1CC1` [Compound 2p, 2-((Bis(4-fluorophenyl)methyl)thio)-N-(cyclopropylmethyl)acetamide], the Ki [1] was 35.4 µM, the Ki [2, 8] was 6860 nM and the Ki [3, 9] was 57600 nM.

In the case of `OC(Cc1ccccc1)CN1CCN(CCSC(c2ccc(F)cc2)c2ccc(F)cc2)CC1` (racemic) [Compound 9j, 1-(4-(2-((Bis(4-fluorophenyl)methyl)thio)ethyl)piperazin-1-yl)-3-phenylpropan-2-ol], the Ki (Sigma 2) is reported as 0.0386 ± 0.00094 µM, the Ki (Sigma 1) is reported as 0.0954 ± 0.0134 µM and the Ki [5, 13] is reported as 213 nM. The Ki [3, 12] was 1950 ± 227 nM.

In the case of `CC(O)CN1CCN(CC[S+]([O-])C(c2ccccc2)c2ccccc2)CC1` (racemic) [Compound 10a, 1-(4-(2-(Benzhydrylsulfinyl)ethyl)piperazin-1-yl)propan-2-ol], the Ki (Sigma 2; [10]) is reported as 3.93 ± 0.208 µM, the Ki ([2]; read-out: DAT Ki ± SEM) is reported as 636 ± 14.7 nM and the Ki (Sigma 1; [11]) is reported as 0.861 ± 0.109 µM. The Ki ([5]; read-out: SERT Ki, Table 5, bound in M) was > 100000 nM and the Ki ([3]; read-out: NET Ki, Table 5, bound in M) was > 100000 nM.

For `C[C@]12CC[C@H]3[C@@H](CCC4=CC(=O)CC[C@@]43C)[C@@H]1CC[C@@H]2O` [Testosterone, reference compound], the “Metabolic stability, Phase I (% remaining)” value ([6]; 0 min) was 100% and the “Metabolic stability, Phase I (% remaining)” value ([6]; 60 min) was 0%.

For `NCCSC(c1ccc(Br)cc1)c1ccc(Br)cc1` [Compound 4c, 2-((bis(4-bromophenyl)methyl)thio)ethan-1-amine], the Ki [1] was < 0.03 µM, the “improvement in DAT affinity, halogen-substituted v. unsubstituted analogue” value [2] was 3 fold and the Ki ([2]; read-out: Ki (nM) ± S.E.M. DAT) was 488 ± 52.2 nM. For the same compound, the “increase in SERT affinity, halogen-substituted v. unsubstituted analogue” value ([5]; 2i v. 2g (Table 1), 4c v. 4a (Table 2)) was 9 fold and the Ki ([5]; read-out: Ki (nM) ± S.E.M. SERT, Table 2 thioethanamines and sulfinylethanamines) was 26 nM and 26.3 nM.

For `Cc1cc(=O)oc2cc(O)ccc12` [4 Methyl Umbelliferone, 4-methylumbelliferone, reference compound], the “Metabolic stability, Phase II (% remaining)” value ([7]; 0 min) was 100% and the “Metabolic stability, Phase II (% remaining)” value ([7]; 60 min) was 3.10%.

Compound `OC(Cc1ccccc1)CN1CCN(CCSC(c2ccccc2)c2ccccc2)CC1` (racemic) [Compound 9g, 1-(4-(2-(Benzhydrylthio)ethyl)piperazin-1-yl)-3-phenylpropan-2-ol] has a Ki (Sigma 2; [10]) of 0.0318 ± 0.00363 µM, a Ki ([2]; rat brain membranes, Table 5 piperazinyl derivatives, read-out: DAT Ki ± SEM) of 2.54 ± 0.23 nM and a Ki (Sigma 1; [11]) of 0.03 ± 0.00381 µM. For the same compound, the Ki [3, 12] was 1430 ± 118 nM.

Work on `[O-][S+](CCN1CCN(CCCc2ccccc2)CC1)C(c1ccccc1)c1ccccc1` (centres unmarked) [Compound 8a, 1-(2-(Benzhydrylsulfinyl)ethyl)-4-(3-phenylpropyl)piperazine] yielded a Ki (Sigma 2) of 0.0205 ± 0.00043 µM, a Ki ([2]; read-out: DAT Ki ± SEM) of 3.17 ± 0.11 nM and a Ki (Sigma 1) of 0.116 ± 0.00124 µM. For the same compound, the Ki [5, 13] was 7220 ± 944 nM and the Ki [3, 12] was 5540 ± 808 nM.
